The source made the active and inactive calls. The rule behind the calls is not given here.

Data set [1] can be described thus: Glutathione peroxidase-like activity assessed as decrease in NADPH level at 20 uM in the presence of H2O2 and glutathione reductase by UV-VIS spectrophotometer analysis (reference value: 37 microM/min). In kind it is physicochemical.
The nature of data set [2]: Glutathione peroxidase-like activity assessed as decrease in NADPH level at 20 uM in the presence of cumene hydroperoxide and glutathione reductase by UV-VIS spectrophotometer analysis (reference value: 7 microM/min). The data set is classed as physicochemical.
Data set [3] in a line: Cytotoxicity against HuAoSMC cells assessed as metabolic activity at 1 uM incubated for 24 hrs by MTT assay. In kind it is toxicity, cell-based. Conditions: human.
Data set [4] can be described thus: Glutathione peroxidase-like activity assessed as time to reach completion of the linear part at 20 uM in presence of cumene hydroperoxide by UV-VIS spectrophotometer analysis. The data set is classed as physicochemical.
A short description of data set [5]: Glutathione peroxidase-like activity assessed as time to reach completion of the linear part at 20 uM in presence of H2O2 by UV-VIS spectrophotometer analysis. The data set is classed as physicochemical.
Data set [6] is described as follows: Antioxidant activity assessed as DPPH radical scavenging activity incubated for 60 min by DPPH assay. The data set is classed as functional. (In general: The DPPH test is a chemical assay of radical scavenging.)
Data set [7] can be described thus: Cytotoxicity against HuAoSMC cells assessed as metabolic activity at below 100 uM incubated for 24 hrs by MTT assay. In kind it is toxicity, cell-based. The settings on record: human, read-out: Activity. (In general: Formazan colour is commonly taken as a measure of viable cells.)
Data set [8] is described as follows: Antioxidant activity assessed as anti-radical efficiency. The data set is classed as functional.
Data set [9] is described as follows: Antioxidant activity assessed as time to reach reaction completion. In kind it is functional.
The nature of data set [10]: Antioxidant activity assessed as FRAP radical scavenging activity by measuring reduction of Fe3+ complex to Fe2+ analogue incubated for 5 mins by FRAP assay. The data set is classed as functional. Set-up: reference not given here.
Data set [11] can be described thus: Antioxidant activity assessed as rate constant. In kind it is functional.

With `NCC[Se][Se]CCN`, the Activity in [1] is 53 µM/min; in data set [2], 66 µM/min; in [3], “Toxic”. The values for the Time in data set [4] and in data set [5] were 93 s and 153 s, respectively.
The EC50 is the concentration at which the effect is half-maximal. In the case of `O=C1NC(=[Se])NC1Cc1ccc(Cl)cc1` (configuration not stated), the 50% effective concentration (EC50) in data set [6] (read-out: EC50) worked out at 44 µM. Moreover, the Activity in data set [1] is 54 µM/min; in data set [2], 27 µM/min; in data set [8] it was 2.1 10^-3/min/µM; in data set [10] it was 421 µM. The viability at 24 h, 100 µM in [7] was greater than 70%. For the same molecule, the Time in data set [4] is reported as 253 s; in data set [5] it was 113 s. Besides, the TIME in data set [9] stood at 0.183 h. The K in [11] was 2.28 s⁻¹.
In the case of `O=C1NC(=[Se])NC1Cc1ccc(F)cc1` (configuration not stated), in data set [6] (read-out: EC50), the EC50 is 39 µM. In addition, the Activity in data set [1] was 57 µM/min; in data set [2], 13 µM/min; in data set [8], 1.05 10^-3/min/µM; in [10], 439 µM. Besides, the viability at 24 h, 100 µM in data set [7] was greater than 70%. Besides, the Time in [4] was determined as 460 s; in data set [5], 107 s. In addition, in [9], the TIME was found to be 0.4 h. In [11], the K amounted to 0.89 s⁻¹.
On to `O=C1NC(=[Se])NC1Cc1ccc(Br)cc1` (configuration not stated), for which, in [6] (read-out: EC50), the EC50 was found to be 60 µM. The Activity in data set [1] amounted to 51 µM/min; in data set [2], 17 µM/min; in data set [10] it was 180 µM. Moreover, the viability at 24 h, 100 µM in data set [7] is greater than 70%. In addition, the Time in data set [4] is given as 393 s; in data set [5], 127 s.
For the molecule `O=c1c2ccccc2[se]n1-c1ccccc1` [EBSELEN], the EC50 result in data set [6] is listed as “Not Active”. Moreover, the Activity in data set [1] turned out to be 75 µM/min; in data set [2], 33 µM/min. The Time was found to be 187 s in [4] and 80 s in data set [5]. The result in data set [10] was inactive.
Regarding `COc1ccc(CC2NC(=[Se])NC2=O)cc1` (configuration not stated), the EC50 in [6] (read-out: EC50) came out at 38 µM. Further, the Activity was 49 µM/min in [1], 13 µM/min in [2], 1.4 10^-3/min/µM in [8] and 314 µM in [10]. In data set [7], the viability at 24 h, 100 µM is greater than 70%. Moreover, the Time in data set [4] stood at 467 s; in [5], 140 s. Moreover, the TIME in [9] was 0.3 h. In addition, in [11], the K came out at 1.2 s⁻¹.
In the case of `O=C1NC(=[Se])NC1Cc1cccc2ccccc12` (configuration not stated), the EC50 in data set [6] (read-out: EC50) was 44 µM. Also, the Activity in data set [1] is 39 µM/min; in data set [2] it was 18 µM/min; in data set [8] it was 1 10^-3/min/µM; in data set [10], 271 µM. Also, in data set [7], the viability at 24 h, 100 µM was greater than 70%. The Time in data set [4] was determined as 360 s; in [5], 187 s. Further, the TIME in data set [9] amounted to 0.367 h. Further, the K in data set [11] was determined as 0.84 s⁻¹.
In the case of `O=C1O[C@H]([C@@H](O)CO)C(O)=C1O` [ASCORBIC ACID], in data set [6] (read-out: EC50), the EC50 stood at 17.8 µM. In addition, in data set [10], the Activity amounted to 1630 µM.
On to `Cc1ccc(CC2NC(=[Se])NC2=O)cc1` (configuration not stated), for which the EC50 in data set [6] (read-out: EC50) was determined as 89 µM. Further, the Activity in [1] amounted to 55 µM/min; in data set [2] it was 18 µM/min; in data set [10], 116 µM. For the same molecule, the viability at 24 h, 100 µM in [7] was greater than 70%. For the same molecule, the results for the Time in data set [4] and in data set [5] were 367 s and 107 s, respectively.
On to `O=C1NC(=[Se])NC1Cc1ccccc1` (configuration not stated), for which, in data set [6] (read-out: EC50), the EC50 was determined as 37 µM. Besides, the Activity was 55 µM/min in [1], 18 µM/min in [2], 0.63 10^-3/min/µM in data set [8] and 219 µM in data set [10]. Further, the viability at 24 h, 100 µM in data set [7] is greater than 70%. The Time in data set [4] amounted to 413 s; in data set [5], 113 s. Besides, the TIME in [9] came out at 0.7 h. In addition, the K in [11] worked out at 0.46 s⁻¹.
Consider `N[C@@H](CCC(=O)N[C@@H](CS)C(=O)NCC(=O)O)C(=O)O` [GLUTATHIONE], for which, in [6] (read-out: EC50), the EC50 was determined as 50 µM. The Activity is 0.69 10^-3/min/µM in [8] and 94 µM in data set [10]. Also, in data set [9], the TIME is 0.483 h. Also, in data set [11], the K was determined as 0.53 s⁻¹.
Turning to `O=C1NC(=[Se])NC1Cc1ccc(C(F)(F)F)cc1` (configuration not stated), the EC50 in data set [6] (read-out: EC50) worked out at 35 µM. Also, the Activity in data set [1] was 63 µM/min; in data set [2] it was 32 µM/min; in [8], 2.1 10^-3/min/µM; in data set [10], 363 µM. The viability at 24 h, 100 µM in data set [7] was greater than 70%. Besides, the Time in [4] turned out to be 180 s; in data set [5], 100 s. For the same molecule, in [9], the TIME stood at 0.233 h. The K in [11] is 1.6 s⁻¹.

The values are drawn from ChEMBL document CHEMBL5365535, “Selenoneine-inspired selenohydantoins with glutathione peroxidase-like activity” (Bioorg Med Chem, 2023).
